The values below come from patent US12435025B2, “Triphenylphosphonium-tethered salicylamine derivatives” (MTI BIOTECH, INC., priority 2019, dated 2025).

Data set [1] deals with HepG2 cells. Particulars: cited from earlier work.
Data set [2] in a line: Single ascending dose study: plasma pharmacokinetics of 2-hydroxybenzylamine. It counts as in vivo, human. To be noted: for Cmax / Tmax / AUC(0-inf) / half-life: both sexes, human, plasma; for AUC(0-inf): read-out: AUC (zero to infinity). An excerpt:
(§1) Healthy male and non-pregnant female volunteers over 18 years of age were eligible to participate. Subjects were not permitted to take any medications 2 weeks prior to or during the study. Exclusion criteria included known cardiac, kidney, or hepatic disease; presence of diseases that could manifest morbidity or symptoms/signs that could confound interpretation of the study results; the need to discontinue any drug administered as standard of care treatment; and the unwillingness or inability to use approved birth-control methods.
2-Hydroxybenzylamine (as the acetate salt, CAS 1206675-01-5) was obtained from TSI (China) Co., Ltd. (Shanghai, China). A commercial production lot was used (Lot 16120312). Our laboratory verified the purity of the commercial lot to be >99% via HPLC and NMR spectroscopy. Hard gel capsules (Capsugel, Jiangsu, China) containing 50, 110, and 412.5 mg of 2-hydroxybenzylamine acetate (corresponding to 34, 75, and 281 mg 2-hydroxybenzylamine) were prepared by TSI (China) Co., Ltd. Determinations of average fill weight, uniformity of weight, disintegration, 2-hydroxybenzylamine content, acetate content, and microbial and analytical tests were within all specification limits.
(§2) This study was an open-label, single ascending dose study designed to assess pharmacokinetics, safety, and tolerability of single doses of 2-hydroxybenzylamine acetate. A 3+3 clinical trial design with a modified Fibonacci sequence dosing scheme^14 was used with a starting dose of 50 mg; thereafter, dosages were increased to 100, 200, 330, 550, and 825 mg. These doses of 2-hydroxybenzylamine acetate correspond to 34, 68, 136, 224, 373, and 560 mg 2-hydroxybenzylamine. Each dose escalation was initiated only after reviewing safety data from all subjects receiving the previous dose.
(§3) Subjects were admitted to the Vanderbilt University Clinical Research Center and remained on the unit for 24 hours after administering 2-hydroxybenzylamine acetate orally in capsules to participants. […] Subjects were monitored at protocol-defined intervals for 24 hours after administration of 2-hydroxybenzylamine. Safety assessments included vital signs (heart rate, respiration rate, blood pressure, and SpO2), clinical laboratory parameters (blood biochemistry, hematology, and urinalysis), 12-lead ECGs, and potential adverse event assessments. All adverse events were recorded, regardless of whether they were considered study-related.
Blood samples for pharmacokinetic analyses were collected at baseline, 0.25, 0.5, 1, 2, 6, 4, 8, and 24 hours after 2-hydroxybenzylamine acetate administration for all dose levels. The 0.25-hour sample was only collected for dosages≤200 mg, and the 6-h sample was only collected for dosages≥330 mg.
[^2H4]-2-hydroxybenzylamine, prepared by Dr. Venkataraman Amarnath as previously described^11, was used as an internal standard. An internal standard solution (100 ng/mL) of ([^2H4]-2-hydroxybenzylamine was prepared in acetonitrile and added to all standards, quality control samples, and patient samples. Standard and quality control samples of 1 mg/mL 2-hydroxybenzylamine were prepared in water. Eight standard curve samples (5, 10, 20, 100, 200, 1000, 2000, and 5000 ng/mL) were prepared with blank human plasma (Bioreclamation, Westbury, NY). In addition, three quality control samples (15, 300, and 3000 ng/mL) were prepared in blank human plasma. Plasma samples were allowed to thaw at room temperature and then vortexed. Internal standard solution (400 μL) and 100 μL of either plasma, quality controls, or standards were added and mixed in a protein precipitation filter 96-well plate (Phenomenex, Torrance, CA). The solution was eluted into a 96-well plate using a positive pressure manifold and then dried under nitrogen gas at 40° C. The samples were then reconstituted in 97/3 v/v water/acetonitrile with 10 mM ammonium formate for analysis. […]

Data set [3] in a line: Half-life of SA in the blood. It counts as in vivo. Particulars: estimated.
In data set [4] the test system is paws injected with carrageenan. To be noted: mice, intraperitoneally 200 mg/kg; cited from earlier work.
The conditions of data set [5]: mice, drinking water, 1 to 10 grams per liter; cited from earlier work.
Data set [6] has as its system sodium channel. To be noted: cited from earlier work.
Data set [7] has as its system γKA protein adducts. Particulars: compared with PM; cited from earlier work.
Data set [8] can be described thus: Single ascending dose study: safety and tolerability (adverse events, ECG, vital signs, laboratory parameters). It counts as in vivo, human.
Text: as §1, §2, §3

The conditions of data set [9]: in vivo; cited from earlier work.
Where [10] appears, read: single oral dose 50 mg 2-hydroxybenzylamine acetate, mean, n = 3.
Setting [11] is: single oral dose 100 mg 2-hydroxybenzylamine acetate, mean, n = 3.

The term Cmax denotes the maximum level reached in the sampled fluid or tissue. The term Tmax denotes the time at which the peak concentration occurs. By half-life is commonly meant the time needed for the level to fall by half in the phase considered.

Like-named read-outs stand apart in the source and are kept apart here.

On to `NCc1ccccc1O` [2-hydroxybenzylamine], for which, in [1], the “protection of HepG2 cells from cytotoxicity induced by hydrogen peroxide” value is “protects”. Besides, in [2] (setting [10]), the Cmax worked out at 90 ng/mL, the Tmax was 1.33 h, the AUC(0-inf) was found to be 396 ng·h/mL and the AUCextrap amounted to 9.1%. Further, the half-life in [2] (single oral dose 50 mg 2-hydroxybenzylamine acetate, mean, n = 3, read-out: Half-life (converted)) is 2.04 h. Moreover, in data set [2] (setting [11]), the highest level (Cmax) was 156 ng/mL, the Tmax is 1.33 h, the AUC(0-inf) was determined as 622 ng·h/mL and the AUCextrap came to 11.2%. For the same compound, the half-life in data set [2] (single oral dose 100 mg 2-hydroxybenzylamine acetate, mean, n = 3, read-out: Half-life (converted)) is 2.33 h. Also, the half-life in [2] (single oral doses, overall mean, read-out: mean half-life (converted)) was 2.1 h. For the same compound, the “Cmax and AUC versus dose” value in data set [2] (single oral doses 50-825 mg 2-hydroxybenzylamine acetate) was “dose-dependent changes”. Moreover, the half-life in [3] was about 2 h. Besides, the “edema in paws injected with carrageenan” value in data set [4] was “decreased edema”. For the same compound, the tissue concentrations in [5] was 10 to 500 µM. Besides, in data set [6], the “protection of sodium channel function inhibited by γKA or oxidants” value is reported as “protects”. The “inhibition of γKA protein adducts in cells” value in data set [7] was “significantly better inhibitor of γKA protein adducts in cells than PM”. Also, the “serious adverse events or deaths” value in [8] (all doses) was “no serious adverse events or deaths”. In [8] (both, human, in vivo, 24 h), the “participants who reported at least 1 adverse event” value amounted to 28% and the “subjects with frequent urination (most common adverse event)” value is on record as 11%. Moreover, in data set [8] (in vivo), the “adverse event frequency or severity versus dose” value is given as “no dose-dependent increase”; the “changes in ECG recordings, vital signs, or laboratory parameters” value was “No clinically significant changes”; the “intensity of adverse events” value is “mild”; the study-related adverse events result is reported as “No adverse events were determined to be study-related”.
Turning to `Cc1ncc(CO)c(CN)c1O` [PM, pyridoxamine], in [1], the “protection of HepG2 cells from cytotoxicity induced by hydrogen peroxide” value was “ineffective”.
On to `O=C(O)c1ccccc1O` [salicylic acid], for which, in data set [9], the “salicylate in the blood bound to protein” value is 80-90%.
Consider `CC(=O)O.NCc1ccccc1O` [2-Hydroxybenzylamine acetate, 2-hydroxybenzylamine acetate], for which, in [8] (both, human, in vivo, 24 h), the Abdominal bloating is recorded as 1 n (%), the Any event is 5 n (%), the Frequent urination is 2 n (%) and the Headache is 1 n (%). In data set [8] (both, human, in vivo, 24 h), the Itchy throat was 1 n (%), the Rash is 1 n (%) and the Sleepiness is recorded as 1 n (%).
